Measurements published in PubChem BioAssay AID1918934 (Molecular Pharmacology Branch, DTP, NCI, 2023).
Where “and” joins values, the source holds several entries; their conditions need not be identical. Equal entries are not always repeated.

System: 292921-168-R-J2-PDC complex spheroid viability
Assay: Anticancer human tumor 292921-168-R-J2-PDC patient-derived pancreatic carcinoma cell line growth inhibition
Conditions: for viability, T/C: stronger effect = lower value
Outline: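 Drug combinations with the LSD1 inhibitor iadademstat tested on tumor cells co-cultured as spheroids with endothelial cells and mesenchymal stem cells. Concentrations descended in half-log increments from clinical Cmax or 10 microM.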

[1] = curve of first compound, second compound 0.1 µM
[2] = curve of first compound, second compound 0.316 µM
[3] = curve of first compound, second compound 1 µM
[4] = curve of first compound, second compound 3.16 µM
[5] = curve of first compound, second compound 10 µM
[6] = second compound 0.1 µM, first compound 0.0316 µM
[7] = second compound 0.1 µM, first compound 0.1 µM
[8] = second compound 0.1 µM, first compound 0.316 µM
[9] = second compound 0.1 µM, first compound 1 µM
[10] = second compound 0.316 µM, first compound 0.0316 µM
[11] = second compound 0.316 µM, first compound 0.1 µM
[12] = second compound 0.316 µM, first compound 0.316 µM
[13] = second compound 0.316 µM, first compound 1 µM
[14] = second compound 1 µM, first compound 0.0316 µM
[15] = second compound 1 µM, first compound 0.1 µM
[16] = second compound 1 µM, first compound 0.316 µM
[17] = second compound 1 µM, first compound 1 µM
[18] = second compound 3.16 µM, first compound 0.0316 µM
[19] = second compound 3.16 µM, first compound 0.1 µM
[20] = second compound 3.16 µM, first compound 0.316 µM
[21] = second compound 3.16 µM, first compound 1 µM
[22] = second compound 10 µM, first compound 0.0316 µM
[23] = second compound 10 µM, first compound 0.1 µM
[24] = second compound 10 µM, first compound 0.316 µM
[25] = second compound 10 µM, first compound 1 µM
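Note: seven day compound exposure before luminescent viability read.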
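Throughout, for viability, T/C: 100% = DMSO vehicle control wells.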

## COc1cc(Nc2ncc3c(n2)-c2ccc(Cl)cc2C(c2c(F)cccc2OC)=NC3)ccc1C(=O)O + NC1CC1c1ccc(-c2cccc(O)c2)cc1
[1]
  IC50: < 3.16 nM
[2]
  IC50: < 3.16 nM
[3]
  IC50: < 3.16 nM
[4]
  IC50: < 3.16 nM
[5]
  IC50: < 3.16 nM
Second compound 0.1 µM, first compound 0.00316 µM
  viability, T/C: 36.8%
Second compound 0.1 µM, first compound 0.01 µM
  viability, T/C: 40.9%
[6]
  viability, T/C: 37.5%
[7]
  viability, T/C: 31.9%
[8]
  viability, T/C: 24.1%
[9]
  viability, T/C: 16.4%
Second compound 0.316 µM, first compound 0.00316 µM
  viability, T/C: 39.2%
Second compound 0.316 µM, first compound 0.01 µM
  viability, T/C: 44.5%
[10]
  viability, T/C: 37.5%
[11]
  viability, T/C: 31.4%
[12]
  viability, T/C: 24.8%
[13]
  viability, T/C: 16.5%
Second compound 1 µM, first compound 0.00316 µM
  viability, T/C: 37.2%
Second compound 1 µM, first compound 0.01 µM
  viability, T/C: 35.9%
[14]
  viability, T/C: 34.6%
[15]
  viability, T/C: 26%
[16]
  viability, T/C: 20.2%
[17]
  viability, T/C: 15.9%
Second compound 3.16 µM, first compound 0.00316 µM
  viability, T/C: 30.4%
Second compound 3.16 µM, first compound 0.01 µM
  viability, T/C: 36.5%
[18]
  viability, T/C: 35.2%
[19]
  viability, T/C: 28.1%
[20]
  viability, T/C: 23.7%
[21]
  viability, T/C: 15%
Second compound 10 µM, first compound 0.00316 µM
  viability, T/C: 34.2%
Second compound 10 µM, first compound 0.01 µM
  viability, T/C: 32.7%
[22]
  viability, T/C: 34.2%
[23]
  viability, T/C: 28%
[24]
  viability, T/C: 19.4%
[25]
  viability, T/C: 14.9%

## CC(C)CC(NC(=O)C(Cc1ccccc1)NC(=O)c1cnccn1)B(O)O (configuration not stated)
Compound 0.000316 µM
  viability, T/C: 18.8% and 20.7%
Compound 0.001 µM
  viability, T/C: 0.9% and 1.54%
Compound 0.00316 µM
  viability, T/C: 0.34% and 1.04%
Compound 0.01 µM
  viability, T/C: 0.42% and 0.8%
Compound 0.0316 µM
  viability, T/C: 0.19% and 0.21%
Compound 0.1 µM
  viability, T/C: 0.21%
Curve of compound
  IC50: < 0.316 nM

## CC1COCCN1c1cc(C2(S(C)(=N)=O)CC2)nc(-c2ccnc3[nH]ccc23)n1 (configuration not stated) + NC1CCC(NC2CC2c2ccccc2)CC1
[1]
  IC50: 351 nM
[2]
  IC50: 212 nM
[3]
  IC50: 200 nM
[4]
  IC50: 163 nM
[5]
  IC50: 128 nM
[6]
  viability, T/C: 65.1%
[7]
  viability, T/C: 64.5%
[8]
  viability, T/C: 52.3%
[9]
  viability, T/C: 24.9%
Second compound 0.1 µM, first compound 3.16 µM
  viability, T/C: 12.7%
Second compound 0.1 µM, first compound 10 µM
  viability, T/C: 11.4%
[10]
  viability, T/C: 62.2%
[11]
  viability, T/C: 56.7%
[12]
  viability, T/C: 46.5%
[13]
  viability, T/C: 24.5%
Second compound 0.316 µM, first compound 3.16 µM
  viability, T/C: 14.3%
Second compound 0.316 µM, first compound 10 µM
  viability, T/C: 12.1%
[14]
  viability, T/C: 54.1%
[15]
  viability, T/C: 56.1%
[16]
  viability, T/C: 46.6%
[17]
  viability, T/C: 23.7%
Second compound 1 µM, first compound 3.16 µM
  viability, T/C: 12.7%
Second compound 1 µM, first compound 10 µM
  viability, T/C: 11.8%
[18]
  viability, T/C: 61%
[19]
  viability, T/C: 51.6%
[20]
  viability, T/C: 44.8%
[21]
  viability, T/C: 22.6%
Second compound 3.16 µM, first compound 3.16 µM
  viability, T/C: 13.3%
Second compound 3.16 µM, first compound 10 µM
  viability, T/C: 12.7%
[22]
  viability, T/C: 56.3%
[23]
  viability, T/C: 52%
[24]
  viability, T/C: 41.2%
[25]
  viability, T/C: 24.2%
Second compound 10 µM, first compound 3.16 µM
  viability, T/C: 14%
Second compound 10 µM, first compound 10 µM
  viability, T/C: 12.1%

## NS(=O)(=O)OCC1CC(n2ccc3c(NC4CCc5ccccc54)ncnc32)CC1O (configuration not stated) + NC1CC1c1ccc(-c2cccc(O)c2)cc1
[1]
  IC50: 17.4 nM
[2]
  IC50: 17.3 nM
[3]
  IC50: 17.4 nM
[4]
  IC50: 17.9 nM
[5]
  IC50: 16.4 nM
Second compound 0.1 µM, first compound 0.00949 µM
  viability, T/C: 87.4%
Second compound 0.1 µM, first compound 0.03 µM
  viability, T/C: 16.4%
Second compound 0.1 µM, first compound 0.0949 µM
  viability, T/C: 5.35%
Second compound 0.1 µM, first compound 0.3 µM
  viability, T/C: 2.15%
Second compound 0.1 µM, first compound 0.949 µM
  viability, T/C: 2.62%
Second compound 0.1 µM, first compound 3 µM
  viability, T/C: 1.96%
Second compound 0.316 µM, first compound 0.00949 µM
  viability, T/C: 86.8%
Second compound 0.316 µM, first compound 0.03 µM
  viability, T/C: 16%
Second compound 0.316 µM, first compound 0.0949 µM
  viability, T/C: 5.14%
Second compound 0.316 µM, first compound 0.3 µM
  viability, T/C: 2.21%
Second compound 0.316 µM, first compound 0.949 µM
  viability, T/C: 1.99%
Second compound 0.316 µM, first compound 3 µM
  viability, T/C: 2.75%
Second compound 1 µM, first compound 0.00949 µM
  viability, T/C: 89.1%
Second compound 1 µM, first compound 0.03 µM
  viability, T/C: 14.7%
Second compound 1 µM, first compound 0.0949 µM
  viability, T/C: 4.08%
Second compound 1 µM, first compound 0.3 µM
  viability, T/C: 2.39%
Second compound 1 µM, first compound 0.949 µM
  viability, T/C: 2.73%
Second compound 1 µM, first compound 3 µM
  viability, T/C: 2.93%
Second compound 3.16 µM, first compound 0.00949 µM
  viability, T/C: 91%
Second compound 3.16 µM, first compound 0.03 µM
  viability, T/C: 16.4%
Second compound 3.16 µM, first compound 0.0949 µM
  viability, T/C: 5.76%
Second compound 3.16 µM, first compound 0.3 µM
  viability, T/C: 2.49%
Second compound 3.16 µM, first compound 0.949 µM
  viability, T/C: 3.17%
Second compound 3.16 µM, first compound 3 µM
  viability, T/C: 2.38%
Second compound 10 µM, first compound 0.00949 µM
  viability, T/C: 76.1%
Second compound 10 µM, first compound 0.03 µM
  viability, T/C: 21.5%
Second compound 10 µM, first compound 0.0949 µM
  viability, T/C: 5.5%
Second compound 10 µM, first compound 0.3 µM
  viability, T/C: 2.88%
Second compound 10 µM, first compound 0.949 µM
  viability, T/C: 2.28%
Second compound 10 µM, first compound 3 µM
  viability, T/C: 2.43%
